Experimental data published in publication PMC6882489, “Design and synthesis of tricyclic terpenoid derivatives as novel PTP1B inhibitors with improved pharmacological property and in vivo antihyperglycaemic efficacy” (Journal of Enzyme Inhibition and Medicinal Chemistry, 2019).

Columns and labels:
human PTP1B = target: T1, human PTP1B (Homo sapiens, UniProt P18031); experiment: PTP1B inhibition assay (pNPP substrate, UV absorption); assay type: biochemical; settings: for inhibition at 10 µM: PTP1B inhibition at 10 μM, performed in triplicate
T1 construct: purchased Sigma
T1 sequence (P18031 1-435): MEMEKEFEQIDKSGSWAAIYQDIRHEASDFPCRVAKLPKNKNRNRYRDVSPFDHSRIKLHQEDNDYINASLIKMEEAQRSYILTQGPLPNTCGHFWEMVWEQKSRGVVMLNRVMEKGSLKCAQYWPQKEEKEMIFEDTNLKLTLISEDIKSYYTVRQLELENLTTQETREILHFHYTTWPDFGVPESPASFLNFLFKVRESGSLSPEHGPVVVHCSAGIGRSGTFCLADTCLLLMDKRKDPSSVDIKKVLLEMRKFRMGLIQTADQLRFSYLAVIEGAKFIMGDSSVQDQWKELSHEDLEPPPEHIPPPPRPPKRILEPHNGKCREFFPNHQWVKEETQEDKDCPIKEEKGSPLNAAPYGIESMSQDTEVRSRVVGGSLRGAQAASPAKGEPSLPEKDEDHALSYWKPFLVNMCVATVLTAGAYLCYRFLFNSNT
Method: The inhibitory assay was performed using human PTP1B (purchased from Sigma) and p-nitrophenylphosphate (pNPP) as substrate by UV absorption. 400 nmol pNPP were dissolved in H2O and 48 μL of the solution was added to a 100 μL reaction. The indicated amount of synthetic compounds was diluted in DMSO at a concentration of 5 mM. The PTP1B was diluted in pH 7.2 buffer contained 50 mM HEPES, 3 mM dithiothreitol, 2 mM EDTA and 100 mM NaCl. About 50 μL PTP1B dilution was added, and the mixture incubated at 37 °C for 30 min. 1N NaOH was added to terminate the reaction. UV–Vis absorption was detected at 410 nm using a Tecan Infinite M1000 plate reader.

PTP1B = system: PTP1B; parameters: method as in PMID 20964318; settings: cited from earlier work
HepG2 cells = experiment: Cell viability in the MTT assay; assay type: cell-based, human; settings: 40 μM compound, 24 h
Method: Cell viability in the MTT assay
The toxicities of the compounds were evaluated by (3-(4, 5-dimethylthiazolyl-2)-2, 5-diphenyltetrazolium bromide) test. HepG2 cells were routinely grown in Dulbecco's Modified Eagle Medium (DMEM) supplemented with 10% (v/v) fetal bovine serum, streptomycin ([…]), and penicillin (100U/mL), in a humidified atmosphere of 95% air, 5% CO2 at 37°C. HepG2 cells were planked in a 96 well plate with a concentration of 1×10^4 cells/well and cultured in 37°C and 5%CO2 for 24 h. Then HepG2 cells were treated with 40 μM of the synthetic compound. HepG2 cells untreated were used as control. HepG2 cells were cultured in 37℃ and 5%CO2 for 24 h, the old medium was carefully removed and were cultured for another 4 h in MTT (0.5%) containing DMEM, then the medium was carefully removed. 150 µL/well dimethyl sulfoxide was added and oscillated gently to make crystal dissolved. The absorbance at 560 nm was measured using a microplate reader. The cell […]
Fig. S1. Cell viability in the MTT assay.
(1 picture or pasted object on this page, not shown here)

NIDDM mice = assay type: in vivo; settings: for Antihyperglycaemic effect (plasma glucose): male Kunming mice, 100 mg/kg intraperitoneally, glucose at 0-4 h, n = 8
Method: The antihyperglycaemic effect of the compounds 15, 25 and C10a were evaluated on non-insulin dependent diabetes mellitus (NIDDM) mice. Nicotinamide and streptozotocin were administrated intraperitoneally to induce hyperglycaemia and the plasma glucose of mice raised over 4.5 mmol/L[45].
Figure 5. The antihyperglycaemic effect in NIDDM mice (n = 8). […] M group: NIDDM mice were treated with saline alone. Y group: NIDDM mice were treated with rosiglitazone.
During the experiment, the male Kunming mice with 25–30 g body weight were fasted but received water prior to induction of diabetes. 110 mg/kg of nicotinamide and 65 mg/kg of streptozotocin (Macklin in Biochemical Technology Co., Ltd., Shanghai, China) were dissolved in pH 4.5 citrate buffer and intraperitoneally administrated to induce NIDDM mice model. The mice were intraperitoneally administered with a compound or rosiglitazone (100 mg/kg) dissolved in saline containing 1% DMSO and 10% Tween 80. Hyperglycaemia was confirmed by a plasma glucose increase of more than 4.5 mmol/L measured by a blood glucose metre (Sinocare GA-3, Changsha, China). Glucose concentrations from the tail of the mice were measured at 0, 0.5, 1, 2, 3 and 4 h by the blood glucose metre. Calculate the percentage of blood glucose by using the following formula: variation of glycaemia% = (AX − A0)/A0 × 100% (AX: blood glucose at selected time; A0: initial blood glucose).

[1] = system: insulin-resistant HepG2 cells; experiment: Glucose uptake / glucose consumption in insulin-resistant HepG2 cells; assay type: cell-based, human; settings: HepG2 induced with 1.5 × 10^−5 mmol insulin for 36 h; compound 40 μM or rosiglitazone 10 μM for 24 h; glucose oxidase method
Method: To assess the insulin sensitisation, the cellular effect of these compounds on insulin-resistant human hepatoma HepG2 cells was performed. The concentration of insulin and induction time were screened to induce insulin resistance in HepG2 cells according to the reported method[41]^,[42] with some modification. As shown in Figure 4(A), treatment with above 1 × 10^−5 mmol of insulin reduced glucose uptake, whereas treatment with 6 × 10^−6 mmol of insulin enhanced glucose uptake. […] As shown in Figure 4(B), insulin resistance was induced in HepG2 cells at 36 h, and rosiglitazone can decrease the insulin resistance. […]
Figure 4. […] After incubation, glucose content in the culture medium was measured by glucose oxidase method. […]
HepG2 cells were grown in DMEM with 10% foetal bovine serum, […] of streptomycin, and 100 U/mL of penicillin, in a humidified atmosphere of 5% CO2 at 37 °C. […] After cultivation, the glucose content was determined by the glucose oxidase method (the glucose analysis kit was purchased from Rongsheng Biopharmaceutical Co., Ltd., Shanghai, China). […] The absorbance was measured at 506 nm using a microplate reader (SpectraMax i3x, Molecular Devices). The residual glucose concentration is expressed as AX/A0 × 5.55 mmol/L (AX: OD value of sample; A0: OD value of glucose standard solution).

Compound | inhibition at 10 µM (human PTP1B) [%] | melting point [°C] | further results
CC(C)C1=CC2=CC[C@@H]3[C@](C)(CCC[C@@]3(C)C(=O)O)[C@H]2CC1 [Compound 1, abietic acid] | 35 |  | 
CC(C)(O)c1ccc2c(c1)CC[C@H]1[C@](C)(C(=O)O)CCC[C@]21C [Compound 3, 15-Hydroxydehydroabieta-18-oic acid] | 19 | 92 to 93 | 
CCOC(=O)[C@]1(C)CCC[C@]2(C)c3ccc(C(C)(C)O)cc3CCC12 (stereo partly drawn) [Compound 4a, Ethyl 15-hydroxydehydroabietate] | 4 | 51 to 52 | 
CC(C)(O)c1ccc2c(c1)CCC1[C@](C)(CO)CCC[C@]21C (stereo partly drawn) [Compound 5, 1-Hydroxylmethyl-15-hydroxydehydroabietate] | 0 |  | 
C[C@@]1(C(=O)O)CCC[C@]2(C)c3ccc(O)cc3CCC12 (stereo partly drawn) [Compound 7, 13-hydroxy-8,11,13-podocarpatriene-1-carboxylic acid] | 1 | 101 to 102 | 
CC(C)C1=CC2=CCC3C(C)(CO)CCCC3(C)C2CC1 (stereo not drawn) [Compound 9] | 3 |  | 
Cc1ccc(S(=O)(=O)OCC2(C)CCCC3(C)C4CCC(C(C)C)=CC4=CCC23)cc1 (stereo not drawn) [Compound 10] | 2 | 67 to 68 | 
CC(C)C1=CC2=CCC3C(C)(C)CCCC3(C)C2CC1 (stereo not drawn) [Compound 11] | 0 |  | 
CC(C)(O)c1ccc2c(c1)CCC1C(C)(C)CCCC21C (stereo not drawn) [Compound 13, 15-Hydroxydehydroabietane] | 22 |  | 
CC1(C)CCCC2(C)c3ccc(O)cc3CCC12 (stereo not drawn) [Compound 14, 13-Hydroxy-8,11,13-podocarpatriene] | 15 | 145 to 146 | 
C[C@@]1(C(=O)O)CCC[C@]2(C)c3ccc(OCCOC(=O)c4ccccc4C(=O)O)cc3CCC12 (stereo partly drawn) [Compound 15] |  | 72 to 73 | 
C[C@@]1(C(=O)O)CCC[C@]2(C)c3ccc(OCCOC(=O)c4ccccc4)cc3CCC12 (stereo partly drawn) [Compound 25] |  | 138 to 139 | 
C[C@@]1(C(=O)O)CCC[C@]2(C)c3ccc(OCCOC(=O)c4ccccc4N)cc3CCC12 (stereo partly drawn) [Compound 28] |  | 126 to 127 | 
C[C@@]1(C(=O)O)CCC[C@]2(C)c3ccc(OCCOC(=O)c4ccc5cc(C(=O)O)ccc5c4)cc3CCC12 (stereo partly drawn) [Compound 34] |  | 189 to 190 | 
CC1(C)CCC2(COC(=O)c3ccccc3C(=O)O)CCC3(C)C(=CCC4C5(C)CCC(=O)C(C)(C)C5CCC43C)C2C1 (stereo not drawn) [Compound C10a] |  |  | IC50 (PTP1B; previous work, read-out: PTP1B inhibition IC50): 3.12 µM; PTP1B inhibition, fold more than the parent compound OA (PTP1B; versus OA): 7.6 fold; Cytotoxicity (HepG2 cells): considerable cytotoxicity and High; IC50 (human PTP1B; values from the text, quantity type not printed there (Table 2 is an image), read-out: PTP1B enzymatic inhibitory activities): 3.1 µM; Antihyperglycaemic effect (plasma glucose) (NIDDM mice): showed the antihyperglycaemic effect; Acute toxicity observations in treated mice (NIDDM mice; mouse, in vivo, ip): hydroabdomen, thrombus and tail necrosis
CN(CCOc1ccc(CC2SC(=O)NC2=O)cc1)c1ccccn1 (stereo not drawn) [rosiglitazone] |  |  | Effect on glucose consumption / insulin-stimulated glucose uptake [1]: significantly decrease the insulin resistance and improve the glucose uptake; Antihyperglycaemic effect (plasma glucose) (NIDDM mice): significant antihyperglycaemic effect after 1 h
